Experimental data published in US11331369B2, “Endoparasitic depsipeptides” (Zoetis Services LLC, priority 2017, dated 2022).

Columns and labels:
Format in all cases: cell-based
[1] = tested on: third stage larvae of Haemonchus contortus; assay: Haemonchus contortus L3 (HcL3) Assay; conditions: 96 h, read-out: HcL3 Minimum Effective Dose (MED)
[2] = tested on: microfilariae of Dirofilaria immitis; assay: Dirofilaria immitis, Microfilaria (DiMF) In vitro Assay; conditions: 72 h, read-out: DiMF Minimum Effective Dose (MED), approximately 72 hours incubation, microfilariae assessed for survival or paralysis
[3] = tested on: 4th stage larvae (L4) of Dirofilaria immitis; assay: Dirofilaria immitis, L4 Stage (DiL4) In Vitro Assay; conditions: Dirofilaria immitis, 72 h, read-out: DiL4 Minimum Effective Dose (MED), approximately 72 hours incubation; L4 larvae assessed for survival or paralysis

Row | SMILES | minimal effective concentration [1] [µM] | minimal effective concentration [2] [µM] | minimal effective concentration [3] [µM]
1 | CC(C)C[C@H]1C(=O)O[C@H](Cc2ccc(Cn3cc(Br)cn3)cc2)C(=O)N(C)[C@@H](CC(C)C)C(=O)O[C@H](C)C(=O)N(C)[C@@H](CC(C)C)C(=O)O[C@H](Cc2ccc(Cn3cccn3)cc2)C(=O)N(C)[C@@H](CC(C)C)C(=O)O[C@H](C)C(=O)N1C [Example 1a-16, (3S,6R,9S,12R,15S,18R,21S,24R)-6-(4-((1H-pyrazol-1-yl)methyl)benzyl)-18-(4-((4-bromo-1H-pyrazol-1-yl)methyl)benzyl)-3,9,15,21-tetraisobutyl-4,10,12,16,22,24-hexamethyl-1,7,13,19-tetraoxa-4,10,16,22-tetraazacyclotetracosan-2,5,8,11,14,17,20,23-octaone] | 1 to 10 | 0.001 to 0.01 | 0.0001 to 0.001
2 | Cc1cnn(Cc2ccc(C[C@H]3OC(=O)[C@H](CC(C)C)N(C)C(=O)[C@@H](C)OC(=O)[C@H](CC(C)C)N(C)C(=O)[C@@H](Cc4ccc(Cn5cc(I)cn5)cc4)OC(=O)[C@H](CC(C)C)N(C)C(=O)[C@@H](C)OC(=O)[C@H](CC(C)C)N(C)C3=O)cc2)c1 [Example 1a-20, (3S,6R,9S,12R,15S,18R,21S,24R)-6-(4-((4-iodo-1H-pyrazol-1-yl)methyl)benzyl)-3,9,15,21-tetraisobutyl-4,10,12,16,22,24-hexamethyl-18-(4-((4-methyl-1H-pyrazol-1-yl)methyl)benzyl)-1,7,13,19-tetraoxa-4,10,16,22-tetraazacyclotetracosan-2,5,8,11,14,17,20,23-octaone] | 1 to 10 | 0.001 to 0.01 | 0.0001 to 0.001
3 | CC(C)C[C@H]1C(=O)O[C@H](Cc2ccc(Cn3cc(I)cn3)cc2)C(=O)N(C)[C@@H](CC(C)C)C(=O)O[C@H](C)C(=O)N(C)[C@@H](CC(C)C)C(=O)O[C@H](Cc2ccc(Cn3cccn3)cc2)C(=O)N(C)[C@@H](CC(C)C)C(=O)O[C@H](C)C(=O)N1C [Example 1a-21, (3S,6R,9S,12R,15S,18R,21S,24R)-6-(4-((1H-pyrazol-1-yl)methyl)benzyl)-18-(4-((4-iodo-1H-pyrazol-1-yl)methyl)benzyl)-3,9,15,21-tetraisobutyl-4,10,12,16,22,24-hexamethyl-1,7,13,19-tetraoxa-4,10,16,22-tetraazacyclotetracosan-2,5,8,11,14,17,20,23-octaone] | 1 to 10 | 0.001 to 0.01 | 0.0001 to 0.001
4 | CC(C)C[C@H]1C(=O)O[C@H](Cc2ccc(Cn3nccc3C(F)(F)F)cc2)C(=O)N(C)[C@@H](CC(C)C)C(=O)O[C@H](C)C(=O)N(C)[C@@H](CC(C)C)C(=O)O[C@H](Cc2ccc(Cn3ccc(C(F)(F)F)n3)cc2)C(=O)N(C)[C@@H](CC(C)C)C(=O)O[C@H](C)C(=O)N1C [Example 1a-26, (3S,6R,9S,12R,15S,18R,21S,24R)-3,9,15,21-tetraisobutyl-4,6,10,16,18,22-hexamethyl-12-(4-((3-(trifluoromethyl)-1H-pyrazol-1-yl)methyl)benzyl)-24-(4-((5-(trifluoromethyl)-1H-pyrazol-1-yl)methyl)benzyl)-1,7,13,19-tetraoxa-4,10,16,22-tetraazacyclotetracosan-2,5,8,11,14,17,20,23-octaone] | 1 to 10 | 0.01 to 0.1 | 0.0001 to 0.001
5 | CC(C)C[C@H]1C(=O)O[C@H](Cc2ccc(Cn3c(C#N)ccc3C#N)cc2)C(=O)N(C)[C@@H](CC(C)C)C(=O)O[C@H](C)C(=O)N(C)[C@@H](CC(C)C)C(=O)O[C@H](Cc2ccc(Cn3c(C#N)ccc3C#N)cc2)C(=O)N(C)[C@@H](CC(C)C)C(=O)O[C@H](C)C(=O)N1C [Example 9-12, 1,1′-(((((2R,5S,8R,11S,14R,17S,20R,23S)-5,11,17,23-tetraisobutyl-4,8,10,16,20,22-hexamethyl-3,6,9,12,15,18,21,24-octaoxo-1,7,13,19-tetraoxa-4,10,16,22-tetraazacyclotetracosane-2,14-diyl)bis(methylene))bis(4,1-phenylene))bis(methylene))bis(1H-pyrrole-2,5-dicarbonitrile)] | ≤ 1 | – | ≤ 0.0001
6 | CC(C)C[C@H]1C(=O)O[C@H](Cc2ccc(Cn3cccc3C#N)cc2)C(=O)N(C)[C@@H](CC(C)C)C(=O)O[C@H](C)C(=O)N(C)[C@@H](CC(C)C)C(=O)O[C@H](Cc2ccc(Cn3cccc3C#N)cc2)C(=O)N(C)[C@@H](CC(C)C)C(=O)O[C@H](C)C(=O)N1C [Example 9-16, 1-[[4-[[(2R,5S,8R,11S,14R,17S,20R,23S)-14-[[4-[(2-cyanopyrrol-1-yl)methyl]phenyl]methyl]-5,11,17,23-tetraisobutyl-4,8,10,16,20,22-hexamethyl-3,6,9,12,15,18,21,24-octaoxo-1,7,13,19-tetraoxa-4,10,16,22-tetrazacyclotetracos-2-yl]methyl]phenyl]methyl]pyrrole-2-carbonitrile] | ≤ 1 | – | ≤ 0.0001
7 | CC(C)C[C@H]1C(=O)O[C@H](Cc2ccc(Cn3cccc3C(N)=O)cc2)C(=O)N(C)[C@@H](CC(C)C)C(=O)O[C@H](C)C(=O)N(C)[C@@H](CC(C)C)C(=O)O[C@H](Cc2ccc(Cn3cccc3C(N)=O)cc2)C(=O)N(C)[C@@H](CC(C)C)C(=O)O[C@H](C)C(=O)N1C [Example 9-32, 1-[[4-[[(2R,5S,8R,11 S,14R,17S,20R,23S)-14-[[4-[(2-carbamoylpyrrol-1-yl)methyl]phenyl]methyl]-5,11,17,23-tetraisobutyl-4,8,10,16,20,22-hexamethyl-3,6,9,12,15,18,21,24-octaoxo-1,7,13,19-tetraoxa-4,10,16,22-tetrazacyclotetracos-2-yl]methyl]phenyl]methyl]pyrrole-2-carboxamide] | ≤ 1 | – | 0.0001 to 0.001
8 | CCc1ncnn1Cc1ccc(C[C@H]2OC(=O)[C@H](CC(C)C)N(C)C(=O)[C@@H](C)OC(=O)[C@H](CC(C)C)N(C)C(=O)[C@@H](Cc3ccc(Cn4ncnc4CC)cc3)OC(=O)[C@H](CC(C)C)N(C)C(=O)[C@@H](C)OC(=O)[C@H](CC(C)C)N(C)C2=O)cc1 [Example 9-50, (3S,6R,9S,12R,15S,18R,21S,24R)-6,18-bis(4-((5-ethyl-1H-1,2,4-triazol-1-yl)methyl)benzyl)-3,9,15,21-tetraisobutyl-4,10,12,16,22,24-hexamethyl-1,7,13,19-tetraoxa-4,10,16,22-tetraazacyclotetracosan-2,5,8,11,14,17,20,23-octaone] | 1 to 10 | – | 0.001 to 0.01
9 | CC(C)C[C@H]1C(=O)O[C@H](Cc2ccc(Cn3ncnc3C3CCC3)cc2)C(=O)N(C)[C@@H](CC(C)C)C(=O)O[C@H](C)C(=O)N(C)[C@@H](CC(C)C)C(=O)O[C@H](Cc2ccc(Cn3ncnc3C3CCC3)cc2)C(=O)N(C)[C@@H](CC(C)C)C(=O)O[C@H](C)C(=O)N1C [Example 9-54, (3S,6R,9S,12R,15S,18R,21S,24R)-6,18-bis(4-((5-cyclobutyl-1H-1,2,4-triazol-1-yl)methyl)benzyl)-3,9,15,21-tetraisobutyl-4,10,12,16,22,24-hexamethyl-1,7,13,19-tetraoxa-4,10,16,22-tetraazacyclotetracosan-2,5,8,11,14,17,20,23-octaone] | 1 to 10 | – | 0.001 to 0.01
10 | CC(C)C[C@H]1C(=O)O[C@H](Cc2ccc(Cn3ncnc3CC3CC3)cc2)C(=O)N(C)[C@@H](CC(C)C)C(=O)O[C@H](C)C(=O)N(C)[C@@H](CC(C)C)C(=O)O[C@H](Cc2ccc(Cn3ncnc3CC3CC3)cc2)C(=O)N(C)[C@@H](CC(C)C)C(=O)O[C@H](C)C(=O)N1C [Example 9-55, (3S,6R,9S,12R,15S,18R,21S,24R)-6,18-bis(4-((5-(cyclopropylmethyl)-1H-1,2,4-triazol-1-yl)methyl)benzyl)-3,9,15,21-tetraisobutyl-4,10,12,16,22,24-hexamethyl-1,7,13,19-tetraoxa-4,10,16,22-tetraazacyclotetracosan-2,5,8,11,14,17,20,23-octaone] | ≤ 1 | – | 0.0001 to 0.001
11 | CC(C)C[C@H]1C(=O)O[C@H](Cc2ccc(Cn3cccc3C#N)cc2)C(=O)N(C)[C@@H](CC(C)C)C(=O)O[C@H](C)C(=O)N(C)[C@@H](CC(C)C)C(=O)O[C@H](Cc2ccccc2)C(=O)N(C)[C@@H](CC(C)C)C(=O)O[C@H](C)C(=O)N1C [Example 10-13, 1-[[4-[[(2R,5S,8R,11S,14R,17S,20R,23S)-14-benzyl-5,11,17,23-tetraisobutyl-4,8,10,16,20,22-hexamethyl-3,6,9,12,15,18,21,24-octaoxo-1,7,13,19-tetraoxa-4,10,16,22-tetrazacyclotetracos-2-yl]methyl]phenyl]methyl]pyrrole-2-carbonitrile] | 1 to 10 | – | 0.0001 to 0.001
12 | CC(C)C[C@H]1C(=O)O[C@H](Cc2ccc(Cn3c(C#N)ccc3C#N)cc2)C(=O)N(C)[C@@H](CC(C)C)C(=O)O[C@H](C)C(=O)N(C)[C@@H](CC(C)C)C(=O)O[C@H](Cc2ccccc2)C(=O)N(C)[C@@H](CC(C)C)C(=O)O[C@H](C)C(=O)N1C [Example 10-31, 1-(4-(((2R,5S,8R,11S,14R,17S,20R,23S)-14-benzyl-5,11,17,23-tetraisobutyl-4,8,10,16,20,22-hexamethyl-3,6,9,12,15,18,21,24-octaoxo-1,7,13,19-tetraoxa-4,10,16,22-tetraazacyclotetracosan-2-yl)methyl)benzyl)-1H-pyrrole-2,5-dicarbonitrile] | 1 to 10 | – | ≤ 0.0001
